# Results reported in publication PMC4897788, “Design, biological evaluation and 3D QSAR studies of novel dioxin-containing pyrazoline derivatives with thiourea skeleton as selective HER-2 inhibitors” (Scientific Reports, 2016).
# Experiments:
# [1] = tested on: MDA-MB-453 human breast cancer cell line; assay: Anti-proliferation assay (MTT), MDA-MB-453; format: cell-based; details: 24 h
# Protocol: (§1) MCF-7 human breast cancer cells was cultured in DMEM/10% fetal bovine serum, in 5% CO2 water saturated atmosphere at 37 °C. MDA-MB-453 human breast cancer cells was cultured in L-15 medium in 100% air at 37 °C. Cell suspensions (10000/mL) were prepared and 100 μL/well dispensed into 96-well plates (Costar) giving 1000 cells/well. The plates were returned to the incubator for 24 h to allow the cells to reattach. These compounds were initially prepared at 20 mM in DMSO. Aliquots (200 μL) were diluted into 20 mL culture medium giving 200 μM, and 10 serial dilutions of 3× prepared. Aliquots (100 μL) of each dilution were added to the wells, giving doses ranging from 100 μM to 0.005 μM. After a further incubated at 37 °C for 24 h in a humidified atmosphere with 5% CO2, the cell viability was assessed by the conventional 3-(4,5-dimethylthiazol-2-yl)-2,5-diphenyltetrazolium bromide (MTT) reduction assay and carried out strictly according to the manufacturer instructions (Sigma). The absorbance at 590 nm was recorded using LX300 Epson Diagnostic micro-plate reader. Then GI50 was calculated using SPSS 13.0 software.
# [2] = tested on: MCF-7 human breast cancer cell line; assay: Anti-proliferation assay (MTT), MCF-7; format: cell-based; details: MCF7, 24 h
# Protocol: as §1
# MDA-MB-453 cell line = assay: Flow cytometry, Annexin V-FITC/PI apoptosis; format: cell-based, human; details: 0.05, 0.1 and 0.2 μM, 24 h
# Protocol: MDA-MB-453 cell line was seeded per well in 24-well plates and incubated overnight. Then they were treated with compound C20 at three different concentrations (0.05 μM, 0.1 μM and 0.2 μM, separately). DMSO was chosen as the negative control with a regular dosage of 0.2%. After 24 h, cells were harvested for the apoptosis detection. In brief, collected cells were washed once with PBS and subsequently washed once with binding buffer, and then stained with Annexin V-FITC and propidium iodide (PI) in the binding buffer for 20 min at room temperature in the dark. Apoptotic cells were quantified using a FACScan cytofluorometer (PT. Madagasi Brosa Inc. JI. Batang Hari NO. 73, Propinsi Sumatera Utara, Indonesia) plotting at least 10,000 events per sample. To quantify the data, the frequencies in all quadrants were analyzed using flowjo software. We regarded cells in the lower right quadrant (Annexin V positive/PI negative) as early apoptotic cells, and cells in upper right quadrant (Annexin V positive/PI positive) as late apoptotic cells and necrotic cells.
# p-EGFR = assay: Western blot p-EGFR in MDA-MB-453; format: cell-based, human; details: increasing C20 levels
# Protocol: (§2) After incubation with compound, cells were harvested and washed with PBS, then lysed in lysis buffer (30 mm Tris, pH 7.5, 150 mm NaCl, 1 mm phenylmethylsulfonyl fluoride, 1 mm Na3VO4, 1% Nonidet P-40, 10% glycerol, and phosphatase and protease inhibitors). After centrifugation at 12,000 g for 5 min, the supernatant was collected as total protein. The concentration of the protein was determined by a BCATM protein assay kit (Pierce, Rockford, IL, USA). The protein samples were separated by 10% SDS–PAGE and subsequently electrotransferred onto a polyvinylidene difluoride membrane (Millipore, Bedford, MA, USA). The membrane was blocked with 5% non-fat milk for 2 h at room temperature. The blocked membrane was probed with the indicated primary antibodies overnight at 4 °C, and then incubated with a horse radish peroxidase (HRP)-coupled secondary antibody.
# Caspase3 = assay: Western blot Caspase3 in MDA-MB-453; format: cell-based, human; details: increasing C20 levels
# Protocol: as §2
# [3] = Cytotoxicity test (MTT), NIH-3T3; format: cell-based; details: mouse, NIH-3T3 mouse embryonic fibroblast cells, NIH3T3
# Protocol: The cytotoxic activity in vitro was measured against mouse fibroblast NIH-3T3 cell using the MTT assay. Cells were cultured in a 96-well plate at a density of 5 × 10^5 cells and different concentrations of compounds were respectively added to each well. The incubation was permitted at 37 °C, 5% CO2 atmosphere for 24 h before the cytotoxicity assessments. 20 μL MTT reagent (4 mg/mL) was added per well 4 h before the end of the incubation. Four hours later, the plate was centrifuged at 1200 rcf for 5 min and the supernatants were removed, each well was added with 200 μL DMSO. The absorbance was measured at a wavelength of 490 nm (OD 490 nm) on an ELISA microplate reader. Three replicate wells were used for each concentration and each assay was measured three times, after which the average of IC50 was calculated. The cytotoxicity of each compound was expressed as the concentration of compound that reduced cell viability to 50% (IC50).
# human erythrocytes = assay: Hemolysis test; format: cell-based; details: lytic concentration 30%
# Protocol: Hemolytic activity was assayed using fresh capillary human blood. Erythrocytes were collected by centrifuging the blood three times in chilled phosphate buffered saline (PBS at 4 °C) at 1000 × g for 10 min. The final pellet was resuspended in PBS to give a 2% w/v solution. Using a microtitre plate, 100 μL of the erythrocyte solution was added to dextran, PLL, stearyl-PLL or stearyl-PLL+ LDL (1–1000/μg/mL) in a volume of […]. Samples were then incubated for 3 h and the microtitre plate was centrifuged then at 1000 × g for 10 min and the supernatants (100 μL) transferred into a new microtitre plate. Hemoglobin release was determined spectrophotometrically using a microtitre plate reader (absorbance at 550 nm). Results were expressed as the amount of released hemoglobin induced by the compounds as a percentage of the total. Hemolysis test was tested according to the guide of biological evaluation of medical device (SFDA, China).
# EGFR = EGFR (Homo sapiens, UniProt P00533); assay: EGFR autophosphorylation kinase assay (DELFIA/time-resolved fluorometry)
# Protocol: (§3) A sequence that encodes (His)6 was located at the 5′ upstream to the HER-2 and EGFR sequences. Sf-9 cells were infected for 3 days for protein expression. Sf-9 cell pellets were solubilized at 0 °C in a buffer at pH 7.4 containing 50 mM HEPES, 10 mM NaCl, 1% Triton, 10 μM ammonium molybdate, 100 μM sodium vanadate, 10 μg/mL aprotinin, 10 μg/mL leupeptin, 10 μg/mL pepstatin, and 16 μg/mL benzamidine, HCl for 20 min followed by 20 min centrifugation. Crude extract supernatant was passed through an equilibrated Ni–NTA superflow packed column and washed with 10 mM and then 100 mM imidazole to remove nonspecifically bound material. Histidine-tagged proteins were eluted with 250 and 500 mM imidazole and dialyzed against 50 mM NaCl, 20 mM HEPES, 10% glycerol and 1 μg/mL each of aprotinin, leupeptin, and pepstatin for 2 h. The entire purification procedure was performed at 4 °C or on ice.
# (§4) Both EGFR and HER-2 kinase assays were set up to assess the level of autophosphorylation based on DELFIA/Time-Resolved Fluorometry. […] Then, 10 μL of 5× buffer (containing 20 mM HEPES, 2 mM MnCl2, 100 μM Na3VO4, and 1 mM DTT) and 20 μL of 0.1 mM ATP-50 mM MgCl2 was added for 1 h. Positive and negative controls were included in each plate by incubation of enzyme with or without ATP-MgCl2. At the end of incubation, liquid was aspirated and plates were washed three times with wash buffer. A 75 μL (400 ng) sample of europium-labeled anti-phosphotyrosine antibody was added to each well for another 1 h of incubation. […] The IC50 was obtained from curves of percentage inhibition with eight concentrations of compound. As the contaminants in the enzyme preparation are fairly low, the majority of the signal detected by the anti-phosphotyrosine antibody is from EGFR or HER-2. The experiment was performed for three independent times and in triplicate each time.
# HER-2 = HER-2 (Homo sapiens, UniProt P04626); assay: HER-2 autophosphorylation kinase assay (DELFIA/time-resolved fluorometry)
# Chain of HER-2 (P04626 676-1245): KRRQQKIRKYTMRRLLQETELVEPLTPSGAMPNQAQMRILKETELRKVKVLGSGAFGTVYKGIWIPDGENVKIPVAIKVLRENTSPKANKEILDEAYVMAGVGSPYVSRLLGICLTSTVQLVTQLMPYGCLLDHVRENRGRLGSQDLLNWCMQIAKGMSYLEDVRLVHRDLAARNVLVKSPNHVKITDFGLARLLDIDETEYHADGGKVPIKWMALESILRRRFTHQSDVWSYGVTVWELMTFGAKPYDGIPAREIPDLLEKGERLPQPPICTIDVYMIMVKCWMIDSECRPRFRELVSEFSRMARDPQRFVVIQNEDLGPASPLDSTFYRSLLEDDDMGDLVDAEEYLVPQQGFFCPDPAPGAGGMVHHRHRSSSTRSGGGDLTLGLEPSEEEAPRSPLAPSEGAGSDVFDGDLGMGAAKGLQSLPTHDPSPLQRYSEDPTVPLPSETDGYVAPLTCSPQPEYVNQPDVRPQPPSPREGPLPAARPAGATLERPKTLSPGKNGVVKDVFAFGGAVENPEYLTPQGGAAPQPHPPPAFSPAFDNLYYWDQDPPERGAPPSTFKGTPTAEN
# Protocol: as §3, §4
# Chain of EGFR (P00533 669-1210): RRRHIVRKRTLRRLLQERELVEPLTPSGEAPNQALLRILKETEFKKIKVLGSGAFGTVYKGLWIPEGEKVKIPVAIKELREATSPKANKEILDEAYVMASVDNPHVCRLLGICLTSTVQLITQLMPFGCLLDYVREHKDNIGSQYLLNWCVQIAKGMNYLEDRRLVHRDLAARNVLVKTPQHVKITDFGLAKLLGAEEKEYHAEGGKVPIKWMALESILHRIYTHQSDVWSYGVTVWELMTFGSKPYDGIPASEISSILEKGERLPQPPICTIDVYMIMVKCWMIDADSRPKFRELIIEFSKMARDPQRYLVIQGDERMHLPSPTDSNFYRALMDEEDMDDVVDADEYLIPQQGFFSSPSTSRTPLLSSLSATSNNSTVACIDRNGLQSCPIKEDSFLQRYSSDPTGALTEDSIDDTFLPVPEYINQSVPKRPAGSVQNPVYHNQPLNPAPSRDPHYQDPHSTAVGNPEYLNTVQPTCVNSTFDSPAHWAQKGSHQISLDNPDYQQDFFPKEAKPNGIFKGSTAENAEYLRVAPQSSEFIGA
compound,measurement,setting,value
"COc1ccc(C2CC(c3ccc4c(c3)OCCO4)=NN2C(N)=S)cc1OC (stereo not drawn) [Compound C20, 3-(2,3-dihydrobenzo[b][1,4]dioxin-6-yl)-5-(3,4-dimethoxyphenyl)-4,5-dihydro-1H-pyrazole-1-carbothioamide]",GI50,[1],150 ± 10 nM
same,GI50,[2],11.9 ± 1.06 µM
same,induction of apoptosis,MDA-MB-453 cell line,induce apoptosis of activated MDA-MB-453 cell line in a dose-dependent manner
same,p-EGFR levels,p-EGFR,unconspicuous
same,Caspase3 levels,Caspase3,corresponding increase
same,GI50 at 24 h,[3],274 ± 3.61 µM
same,Hemolysis LC30,human erythrocytes,>10 mg/mL
same,IC50,EGFR,28.6 ± 2.52 µM
same,IC50,HER-2,30 ± 2 nM
